Experimental data published in ChEMBL document CHEMBL5154672, “Design and synthesis of HDAC inhibitors to enhance the therapeutic effect of diffuse large B-cell lymphoma by improving metabolic stability and pharmacokinetic characteristics” (Eur J Med Chem, 2022).
Activity calls are given as the source filed them. No cut-off for these calls is given here.

Tests used:
Histone deacetylase 2 [1] = target: T1, Histone deacetylase 2 (Homo sapiens, UniProt Q92769); test: Inhibition of HDAC2 in human TMD8 cells assessed as histone H4 acetylation after 24 hrs by Western blot analysis; format: cell-based; conditions: dose 2.5-10 µM, DDE = dose-dependent effect
[2] = target: Histone deacetylase 5 (Homo sapiens) (UniProt Q9UQL6); test: Inhibition of HDAC5 (unknown origin) assessed as remaining enzyme activity at 1 uM using Boc-(Trifluoroacetyl) Lysine-AMC fluorogenic peptide as substrate preincubated for 10 mins followed by substrate addition for 30 mins in presence of ATP by fluoroscence based assay relative to control; conditions: time 40.0 min
TMD8 [3] = test: Induction of apoptosis in human TMD8 cells assessed as increase in cleaved PARP levels at 2.5 to 10 uM after 24 hrs by Western blot analysis; format: functional, cell-based; conditions: dose 2.5-10 µM
Histone deacetylase 3 [4] = target: T2, Histone deacetylase 3 (Homo sapiens, UniProt O15379); test: Inhibition of HDAC3 in human TMD8 cells assessed as histone H3 acetylation after 24 hrs by Western blot analysis; format: cell-based; conditions: dose 2.5-10 µM, DDE = dose-dependent effect
TMD8 [5] = test: In vivo antitumor activity against TMD8 cells xenografted in CB.17 SCID mouse assessed as inhibition of tumor growth at 50 mg/kg/day, po for 21 consecutive days measured every 3 days by Vernier caliper; format: functional, organism-based; conditions: Homo sapiens, time 21.0 day
Histone deacetylase 3 [6] = target: T2, Histone deacetylase 3; test: Inhibition of HDAC3 in human TMD8 cells assessed as histone H4 acetylation after 24 hrs by Western blot analysis; format: cell-based; conditions: dose 2.5-10 µM, DDE = dose-dependent effect
[7] = target: Histone deacetylase 9 (Homo sapiens) (UniProt Q9UKV0); test: Inhibition of HDAC9 (unknown origin) assessed as remaining enzyme activity at 1 uM using Boc-(Trifluoroacetyl) Lysine-AMC fluorogenic peptide as substrate preincubated for 10 mins followed by substrate addition for 30 mins in presence of ATP by fluoroscence based assay relative to control; conditions: time 40.0 min
[8] = target: Histone deacetylase 4 (Homo sapiens) (UniProt P56524); test: Inhibition of HDAC4 (unknown origin) assessed as remaining enzyme activity at 1 uM using Boc-(Trifluoroacetyl) Lysine-AMC fluorogenic peptide as substrate preincubated for 10 mins followed by substrate addition for 30 mins in presence of ATP by fluoroscence based assay relative to control; conditions: time 40.0 min
Histone deacetylase 1 [9] = target: T3, Histone deacetylase 1 (Homo sapiens, UniProt Q13547); test: Inhibition of HDAC1 in human TMD8 cells assessed as histone H4 acetylation after 24 hrs by Western blot analysis; format: cell-based; conditions: dose 2.5-10 µM, DDE = dose-dependent effect
[10] = target: Histone deacetylase 7 (Homo sapiens) (UniProt Q8WUI4); test: Inhibition of HDAC7 (unknown origin) assessed as remaining enzyme activity at 1 uM using Boc-(Trifluoroacetyl) Lysine-AMC fluorogenic peptide as substrate preincubated for 10 mins followed by substrate addition for 30 mins in presence of ATP by fluoroscence based assay relative to control; conditions: time 40.0 min
Histone deacetylase 1 [11] = target: T3, Histone deacetylase 1; test: Inhibition of HDAC1 in human TMD8 cells assessed as histone H3 acetylation after 24 hrs by Western blot analysis; format: cell-based; conditions: dose 2.5-10 µM, DDE = dose-dependent effect
DLBCL = test: Cytotoxicity against human DLBCL cells assessed as cell growth inhibition; format: functional, cell-based
[12] = target: Histone deacetylase 11 (Homo sapiens) (UniProt Q96DB2); test: Inhibition of HDAC11 (unknown origin) assessed as remaining activity using (Boc-(Trifluoroacetyl) Lysine-AMC) fluorogenic peptide as substrate preincubated for 10 mins followed by substrate addition for 30 mins in presence of ATP by fluoroscence assay relative to control; conditions: time 40.0 min
TMD8 [13] = test: Induction of cell cycle arrest in human TMD8 cells assessed as accumulation of cells at G2/M phase incubated for 24 hrs by propidium iodide based flow cytometric analysis; format: functional; conditions: dose 0.25-1 µM, DDE = dose-dependent effect
Mus musculus = test: Upregulation of acetylated-H3 levels in CB.17 SCID mouse xenografted with human TMD8 cells at 50 to 100 mg/kg/day, po measured after 21 days by Western blot analysis; format: functional, organism-based; conditions: dose 50-100 mg/kg/day, time 21.0 day
[14] = target: Protein deacetylase HDAC6 (Homo sapiens) (UniProt Q9UBN7); test: Inhibition of HDAC6 (unknown origin) assessed as remaining enzyme activity at 1 uM using RHKK(Ac)AMC fluorogenic peptide as substrate preincubated for 10 mins followed by substrate addition for 1 hr in presence of ATP by fluoroscence based assay relative to control; conditions: time 70.0 min
TMD8 [15] = test: Induction of apoptosis in human TMD8 cells assessed as cleavage of inactive caspase-3 at 2.5 to 10 uM after 24 hrs by Western blot analysis; format: functional, cell-based; conditions: dose 2.5-10 µM
TMD8 [16] = test: Induction of apoptosis in human TMD8 cells assessed as increase in cleaved caspase-3 levels at 2.5 to 10 uM after 24 hrs by Western blot analysis; format: functional, cell-based; conditions: dose 2.5-10 µM
Histone deacetylase 2 [17] = target: T1, Histone deacetylase 2; test: Inhibition of HDAC2 in human TMD8 cells assessed as histone H3 acetylation after 24 hrs by Western blot analysis; format: cell-based; conditions: dose 2.5-10 µM, DDE = dose-dependent effect
TMD8 [18] = test: Induction of apoptosis in human TMD8 cells incubated for 24 hrs by propidium iodide based flow cytometric analysis; format: functional, cell-based; conditions: dose 0.25-1 µM, DDE = dose-dependent effect

T2 sequence (O15379 whole entry): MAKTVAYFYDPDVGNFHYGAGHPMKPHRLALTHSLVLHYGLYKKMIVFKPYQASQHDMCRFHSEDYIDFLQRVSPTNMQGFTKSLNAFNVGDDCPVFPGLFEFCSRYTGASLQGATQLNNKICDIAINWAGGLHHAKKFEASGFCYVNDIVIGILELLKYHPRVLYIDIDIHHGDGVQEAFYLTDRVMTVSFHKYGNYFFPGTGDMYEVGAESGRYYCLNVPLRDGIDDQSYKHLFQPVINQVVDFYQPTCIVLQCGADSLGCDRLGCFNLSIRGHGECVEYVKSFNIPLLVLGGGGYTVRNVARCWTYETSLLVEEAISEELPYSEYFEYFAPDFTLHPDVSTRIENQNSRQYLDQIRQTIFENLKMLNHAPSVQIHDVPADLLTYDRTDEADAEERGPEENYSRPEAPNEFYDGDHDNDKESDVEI
T1 sequence (Q92769 whole entry): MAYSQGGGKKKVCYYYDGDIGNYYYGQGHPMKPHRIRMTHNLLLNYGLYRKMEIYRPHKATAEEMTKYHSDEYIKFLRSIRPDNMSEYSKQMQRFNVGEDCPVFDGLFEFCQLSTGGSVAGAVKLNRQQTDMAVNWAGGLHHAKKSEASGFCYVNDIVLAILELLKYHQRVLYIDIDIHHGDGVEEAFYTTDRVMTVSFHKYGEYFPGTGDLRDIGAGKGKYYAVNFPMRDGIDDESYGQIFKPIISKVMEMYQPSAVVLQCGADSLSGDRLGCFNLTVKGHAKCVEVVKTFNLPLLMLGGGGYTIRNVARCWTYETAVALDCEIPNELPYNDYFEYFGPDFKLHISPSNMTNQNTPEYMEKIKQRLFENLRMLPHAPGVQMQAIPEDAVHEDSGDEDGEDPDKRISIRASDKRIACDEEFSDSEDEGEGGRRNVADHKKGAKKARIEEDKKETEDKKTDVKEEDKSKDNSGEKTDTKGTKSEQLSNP
T3 sequence (Q13547 whole entry): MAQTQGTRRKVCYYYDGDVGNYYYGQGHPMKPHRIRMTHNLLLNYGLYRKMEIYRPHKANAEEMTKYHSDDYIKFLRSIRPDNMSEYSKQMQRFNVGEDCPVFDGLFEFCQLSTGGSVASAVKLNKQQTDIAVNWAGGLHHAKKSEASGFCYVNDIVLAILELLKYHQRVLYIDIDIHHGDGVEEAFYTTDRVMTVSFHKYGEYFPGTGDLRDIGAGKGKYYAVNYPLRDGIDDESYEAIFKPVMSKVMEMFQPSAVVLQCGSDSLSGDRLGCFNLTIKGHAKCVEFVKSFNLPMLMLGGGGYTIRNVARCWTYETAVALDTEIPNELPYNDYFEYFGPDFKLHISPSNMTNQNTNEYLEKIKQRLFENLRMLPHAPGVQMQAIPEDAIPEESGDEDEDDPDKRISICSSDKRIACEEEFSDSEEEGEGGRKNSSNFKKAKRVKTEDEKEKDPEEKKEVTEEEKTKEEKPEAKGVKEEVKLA
Sequence of Protein deacetylase HDAC6 (Homo sapiens) (Q9UBN7 whole entry): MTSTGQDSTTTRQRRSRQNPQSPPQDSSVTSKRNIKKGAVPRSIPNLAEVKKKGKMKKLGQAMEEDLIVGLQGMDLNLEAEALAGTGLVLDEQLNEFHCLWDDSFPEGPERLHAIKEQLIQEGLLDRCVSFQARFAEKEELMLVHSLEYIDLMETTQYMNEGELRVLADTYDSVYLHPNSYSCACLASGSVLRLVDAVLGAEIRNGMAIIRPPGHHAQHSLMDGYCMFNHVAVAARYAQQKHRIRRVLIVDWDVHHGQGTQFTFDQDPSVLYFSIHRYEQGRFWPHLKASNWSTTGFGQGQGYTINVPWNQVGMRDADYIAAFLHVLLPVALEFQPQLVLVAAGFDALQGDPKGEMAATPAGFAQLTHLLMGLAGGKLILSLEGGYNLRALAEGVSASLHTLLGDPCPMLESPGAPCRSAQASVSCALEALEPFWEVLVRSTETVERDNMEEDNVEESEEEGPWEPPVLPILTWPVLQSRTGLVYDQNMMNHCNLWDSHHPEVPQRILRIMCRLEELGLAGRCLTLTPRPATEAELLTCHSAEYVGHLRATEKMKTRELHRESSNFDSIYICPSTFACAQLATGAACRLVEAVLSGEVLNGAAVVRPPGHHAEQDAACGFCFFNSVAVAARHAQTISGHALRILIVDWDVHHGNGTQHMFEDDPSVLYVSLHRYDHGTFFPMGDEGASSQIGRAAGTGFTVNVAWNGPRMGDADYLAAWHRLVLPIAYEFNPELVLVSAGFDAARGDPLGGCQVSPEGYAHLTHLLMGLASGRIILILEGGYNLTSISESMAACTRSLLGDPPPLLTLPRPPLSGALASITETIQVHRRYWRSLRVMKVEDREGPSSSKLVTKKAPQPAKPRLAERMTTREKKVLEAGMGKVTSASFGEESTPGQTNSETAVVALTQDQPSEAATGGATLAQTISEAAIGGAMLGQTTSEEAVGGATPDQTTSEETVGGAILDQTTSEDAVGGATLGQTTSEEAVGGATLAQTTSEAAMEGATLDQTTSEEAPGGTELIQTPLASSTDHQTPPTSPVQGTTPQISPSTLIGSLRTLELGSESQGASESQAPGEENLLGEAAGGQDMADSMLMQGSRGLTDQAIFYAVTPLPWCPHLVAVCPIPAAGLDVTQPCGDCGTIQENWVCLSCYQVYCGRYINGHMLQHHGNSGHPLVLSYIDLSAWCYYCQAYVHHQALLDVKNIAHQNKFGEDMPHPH
Sequence of Histone deacetylase 7 (Homo sapiens) (Q8WUI4 whole entry): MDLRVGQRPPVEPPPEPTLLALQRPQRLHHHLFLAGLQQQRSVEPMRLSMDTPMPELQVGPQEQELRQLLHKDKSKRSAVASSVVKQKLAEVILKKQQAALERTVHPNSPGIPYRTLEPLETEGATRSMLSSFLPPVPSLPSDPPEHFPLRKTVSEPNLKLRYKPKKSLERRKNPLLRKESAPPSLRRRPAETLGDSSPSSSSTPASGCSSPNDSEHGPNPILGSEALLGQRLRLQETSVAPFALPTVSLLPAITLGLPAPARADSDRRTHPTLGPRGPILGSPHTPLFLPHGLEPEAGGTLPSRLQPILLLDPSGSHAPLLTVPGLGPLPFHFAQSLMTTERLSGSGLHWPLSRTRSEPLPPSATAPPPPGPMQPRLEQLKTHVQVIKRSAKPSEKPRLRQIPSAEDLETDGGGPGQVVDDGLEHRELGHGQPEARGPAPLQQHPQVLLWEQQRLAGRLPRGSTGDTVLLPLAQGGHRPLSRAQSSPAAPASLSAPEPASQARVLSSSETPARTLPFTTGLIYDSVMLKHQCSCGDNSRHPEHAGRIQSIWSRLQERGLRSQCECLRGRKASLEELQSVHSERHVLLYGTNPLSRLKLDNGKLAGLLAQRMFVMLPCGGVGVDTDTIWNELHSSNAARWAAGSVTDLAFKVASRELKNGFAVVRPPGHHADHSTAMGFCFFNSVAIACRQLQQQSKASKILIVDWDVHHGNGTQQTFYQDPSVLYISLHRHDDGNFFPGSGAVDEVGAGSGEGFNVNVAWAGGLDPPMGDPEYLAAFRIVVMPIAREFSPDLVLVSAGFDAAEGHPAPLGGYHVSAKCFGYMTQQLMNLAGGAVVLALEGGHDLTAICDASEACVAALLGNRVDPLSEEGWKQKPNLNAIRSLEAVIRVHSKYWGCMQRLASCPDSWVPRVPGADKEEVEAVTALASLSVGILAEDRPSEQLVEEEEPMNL
Sequence of Histone deacetylase 11 (Homo sapiens) (Q96DB2 whole entry): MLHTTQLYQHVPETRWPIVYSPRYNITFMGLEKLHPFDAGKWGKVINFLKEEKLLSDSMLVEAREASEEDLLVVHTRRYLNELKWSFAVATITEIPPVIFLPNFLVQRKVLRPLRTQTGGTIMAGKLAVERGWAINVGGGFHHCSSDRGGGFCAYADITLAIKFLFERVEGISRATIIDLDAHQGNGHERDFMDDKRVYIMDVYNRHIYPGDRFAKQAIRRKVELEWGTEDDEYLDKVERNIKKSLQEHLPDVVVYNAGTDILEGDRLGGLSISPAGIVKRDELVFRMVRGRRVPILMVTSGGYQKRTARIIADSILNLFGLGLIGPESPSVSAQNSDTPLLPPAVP
Sequence of Histone deacetylase 4 (Homo sapiens) (P56524 whole entry): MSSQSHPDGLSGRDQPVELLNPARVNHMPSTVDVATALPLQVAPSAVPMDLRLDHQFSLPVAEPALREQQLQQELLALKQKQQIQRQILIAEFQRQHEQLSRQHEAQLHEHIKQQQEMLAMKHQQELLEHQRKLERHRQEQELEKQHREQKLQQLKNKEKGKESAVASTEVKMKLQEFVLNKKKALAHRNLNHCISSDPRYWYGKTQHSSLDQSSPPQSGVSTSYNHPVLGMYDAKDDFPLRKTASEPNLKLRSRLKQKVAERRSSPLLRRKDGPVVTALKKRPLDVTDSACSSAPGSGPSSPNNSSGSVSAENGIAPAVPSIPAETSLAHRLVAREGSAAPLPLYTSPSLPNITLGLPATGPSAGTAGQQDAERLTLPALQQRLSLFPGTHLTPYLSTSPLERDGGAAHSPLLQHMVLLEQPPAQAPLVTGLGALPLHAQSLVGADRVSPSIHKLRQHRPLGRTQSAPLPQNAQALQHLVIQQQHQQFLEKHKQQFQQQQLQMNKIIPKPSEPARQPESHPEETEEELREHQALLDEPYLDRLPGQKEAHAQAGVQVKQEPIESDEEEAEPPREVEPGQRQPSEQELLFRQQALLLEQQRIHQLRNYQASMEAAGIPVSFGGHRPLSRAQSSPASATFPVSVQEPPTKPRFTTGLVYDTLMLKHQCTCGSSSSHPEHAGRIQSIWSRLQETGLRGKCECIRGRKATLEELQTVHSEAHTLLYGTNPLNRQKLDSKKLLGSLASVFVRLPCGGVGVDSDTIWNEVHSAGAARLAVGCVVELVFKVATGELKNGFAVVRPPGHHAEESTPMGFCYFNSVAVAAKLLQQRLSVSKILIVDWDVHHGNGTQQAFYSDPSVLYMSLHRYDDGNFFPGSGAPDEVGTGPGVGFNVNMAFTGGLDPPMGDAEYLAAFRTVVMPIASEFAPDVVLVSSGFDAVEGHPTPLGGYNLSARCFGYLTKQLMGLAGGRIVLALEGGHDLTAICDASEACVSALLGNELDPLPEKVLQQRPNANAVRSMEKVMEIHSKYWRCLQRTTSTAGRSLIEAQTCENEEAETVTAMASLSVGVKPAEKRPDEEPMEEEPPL

inhibition (Histone deacetylase 2 [1]): Dde
Activity [2]: 84.4%
inhibition (Histone deacetylase 3 [4]): Dde
inhibition (Histone deacetylase 3 [6]): Dde
Activity [7]: 92.3%
Activity [8]: 81.2%
inhibition (Histone deacetylase 1 [9]): Dde
Activity [10]: 88.1%
inhibition (Histone deacetylase 1 [11]): Dde
Activity [12]: 92%
Activity [14]: 96.9%
inhibition (Histone deacetylase 2 [17]): Dde
Compound: Nc1ccccc1NC(=O)c1ccc(CN2CCC/C(=C\c3ccccn3)C2=O)cc1
Activity (TMD8 [3]): Active
Activity (TMD8 [5]): Active
Activity (DLBCL): Active
Activity (TMD8 [13]): Dde
Activity (Mus musculus): Active
Activity (TMD8 [15]): Active
Activity (TMD8 [16]): Active
Activity (TMD8 [18]): Dde
